The test system of one data set is human KIF20A transcript. Kind of data set: shRNA screening by dual luciferase reporter assay. In kind it is cell-based. The note with it: transfected HEK293 cells, shRNA in pNUT vector, cDNA target in psi-CHECK, 48 hours. The protocol: FIGS. 10a-10c show generation of human KIF20A shRNAs and stable Daoy cell lines. […] Candidate shRNAs in pNUT vector were first screened with a cDNA target cloned in psi-CHECK vector in transfected HEK293 cells, using a dual luciferase reporter assay and their cDNA target in psi-CHECK Vector (Promega). Six candidate shKIF20As were tested with this assay. […] Data are mean±S.D. **P<0.01, ***P<0.001 (two-way ANOVA).
DNA Constructs, Lentivirus Production: Lentiviral transfer plasmids used in this study include: Hiv7CMV-Cre-myc-2A-GFP (Addgene #117148), Hiv7CMV-GFP, Hiv7CMV-GFP-IRES-Luciferase, as well as Tet-on inducible shRNA plasmids Tet-pLKO-hushKIF20A726 or Tet-pLKO-hushKIF20A181-Puro (shRNA sequences were cloned into pLKO-Tet-On plasmid, Addgene #21915 at Agel/EcoRI sites). […]
shRNA design and screening: Potential shRNA sequences were selected using web-based design tool (rnaidesigner.thermofisher.com/rnaiexpress/design.do). shRNAs were expressed under the control of a mouse U6 promoter in pNUTs vector which additionally contains a ubiquitin promoter-EGFP expression cassette. Candidate shRNAs in pNUTs and cDNA target in psi-CHECK were co-transfected into HEK293 cells in triplicates; 48 hours later, the firefly and Renilla Luciferase values were determined with Promega's Dual-Luciferase® Reporter Assay System (Promega, E1910). […]

Data set [1] concerns GISC017 cells. The data set is described as follows: Cell growth of GISC017 cells. In kind it is cell-based, human. The following applies: vs scrambled shRNA. An excerpt:
(§1) To further investigate the relevance of KIF20A in human brain tumors, inhibition of KIF20A in patient-derived GBM-initiating/stem cells (GISCs) was examined. As the ERKS axis functions in different types of brain tumor-initiating/stem cells, data obtained from study of GISCs would be applicable to other brain tumor cell types. Multiple lines of patient-derived GISCs were obtained from Dr. Christine Brown. These low passaged GISCs could be expanded in cultures and could engraft in NSG mice^43, 44. FIG. 11 summarizes the results of testing KIF20A in one GISC line (GISC017) by constitutive expression of a control scrambled shRNA or shKIF20A726 (shRNA targeting hKIF20A) in pNUT vector-based lentiviral expression system. […] In the above cell cycle exit analysis, co-staining of differentiation markers (e.g. βlll-tubulin, DCX, or NeuN) was performed, however, these markers were detected in EdU^+Ki67^− (cells having left the cell cycle) but also in some EdU^+Ki67^+ (cells staying in the cell cycle) cells, which might reflect a technical artefact observed with progenitor/stem cells in culture. […]

In data set [2] the test system is GISC017 cells. The data set is described as follows: Cell cycle exit analysis (EdU/Ki67) in GISC017 cells. Format: cell-based, human. The following applies: shRNA expression vs scrambled shRNA.
Text: as §1

A further data set has as its system KIF20A. The data set is described as follows: KIF20A knockdown in GISC017 cells by lentiviral shRNA. The following applies: constitutive lentiviral expression, vs scrambled shRNA. In kind it is cell-based, human.
Text: as §1

Another data set concerns Daoy cells. Kind of data set: Intracranial Daoy tumor transplantation in NSG mice, bioluminescence imaging and survival. In kind it is in vivo, mouse. The note with it: Daoy Clone #2 in cerebellum of NSG mice. The source says:
Expression of the two factors was highly correlated. […] Tumor growths were monitored by bioluminescence imaging. Doxycycline treatment started at four weeks after initial cell implantation (indicated with a red font and line). The treatment group of mice was first given doxycycline by gavage for two consecutive days and was then fed with doxycycline-containing food for the entire duration of the experiment.
Intracranial tumor transplantation and Bioluminescence imaging: NSG mice (8-10 weeks old) were anesthetized with isoflurane and oxygen and placed under microscope. […] The transplanted mice were then monitored weekly with luciferase-based bioluminescence imaging for tumor growth. […] Tumor growths in two mice groups were monitored weekly by bioluminescence imaging. Survivals of mice after cell transplantation were recorded and analyzed.
To examine the function of KIF20A in tumor formation by Daoy cells, 10^5 Clone #2 cells were injected into the cerebellum of each recipient NSG mouse using a method previously described^22. Growth of tumor cells was then monitored by bioluminescence imaging. […] The mice were then kept on doxycycline-containing food continuously and were monitored for tumor growth by bioluminescence imaging.

Entries after “also recorded” stand apart in the source; their conditions may differ.

Regarding “5′-GAGGAGTGTCTACATCGAA-TTCAAGAGA-TTCGATGTAGACACTCCTC-3′ (GAGGAGTGTCTACATCGAATTCAAGAGATTCGATGTAGACACTCCTC; hairpin, further chemistry not given here) [shKIF20A726, shRNA targeting human KIF20A transcript]”, the “inhibition of expression of the human KIF20A transcript (luciferase assay)” value in the data set with human KIF20A transcript is “significantly inhibit expression of the human KIF20A transcript”. For the same substance, the cell growth rate entry with GISC017 cells [1] was “slower cell growth rate; also recorded: inhibited cell growth”. Also, the “cell cycle exit (EdU+Ki67− cells)” value in the data set with GISC017 cells [2] was “more cells exiting the cell cycle; also recorded: increase of GFP+EdU+Ki67− cells”. Further, the KIF20A level result in the data set on KIF20A is listed as “strongly knocked down KIF20A level; also recorded: significant knockdown of KIF20A expression”. Further, in the data set with Daoy cells (doxycycline from four weeks after implantation vs untreated), the “brain tumor growth (bioluminescence imaging)” value was “significantly slower growth of brain tumors; also recorded: inhibited tumor growth”. Also, the “survival (Kaplan-Meier)” value in the data set on Daoy cells (doxycycline treatment vs untreated) is “better overall survival”.

These data come from patent US20240240189A1, “CANCER TREATMENT BY TARGETING PROTEINS OR INTERACTIONS OF EPHRINB-RGS3-KIF20A-SEPT7 AXIS” (CITY OF HOPE, priority 2021, published 2024).
